From patent US20210275606A1, “COMPOSITIONS COMPRISING BACTERIAL STRAINS” (4D Pharma Research Limited, priority 2018, published 2021)
Values joined by “and” are separate entries in the source; they are usually repeats but may differ in a detail not shown here. Equal values may be shown once. Where a name gives a salt, the structure may show the parent alone.

Tests used:
HDAC [1] = experiment: HDAC inhibition on HT-29 cell lysate; format: biochemical
Method: (§1) Whole cells and cell free supernatants of stationary phase 43043 cultures were isolated by centrifugation and filtering in a 0.22 uM filter. HT-29 cells were used 3 days' post confluence and stepped down in 1 mL DTS 24 hours prior to commencement of the experiment. The HT-29 cells were challenged with 10% cell free supernatant diluted in DTS and this was left to incubate for 48 hours. […] were then extracted using the Sigma Aldrich Nuclease extraction kit and samples were snap frozen prior to HDAC activity measurement. HDAC activity kit was assessed fluorometrically using the Sigma Aldrich (UK) kit.
(§2) To investigate which metabolites were responsible for the strain-induced HDAC inhibition, different concentrations of hexanoic acid, valeric acid and sodium butyrate were measured for their HDAC inhibition on whole HT-29 cells and on HT-29 cell lysate.

HDAC [2] = experiment: Global HDAC activity analysis in HT-29 cells; format: cell-based; settings: for inhibition of total HDAC activity: whole HT-29 cells and HT-29 cell lysate tested, sentence does not say which
Method: Pure cultures of 43043 bacteria were grown anaerobically in YCFA broth until they reached their stationary growth phase. Cultures were centrifuged at 5,000×g for 5 minutes and the cell-free supernatant (CFS) was filtered using a 0.2 μM filter (Millipore, UK). 1 mL aliquots of the CFS were stored at −80° C. until use. Sodium butyrate, hexanoic and valeric acid were obtained from Sigma Aldrich (UK) and suspensions were prepared in YCFA broth.
as §1, §2

[3] = tested on: DSS-induced colitis mouse model; experiment: DSS-induced colitis mouse model, ileum histology; format: in vivo; design: key to Erosion (epithelial cell damage) / Depletion of goblet cells / Edema / Leucocytes Infiltration: 0: None; Minimal <10%; Mild 10-25%; 3: Moderate 26-50%; 4: Marked >50%; COLITIS SCORING (sum) / COLITIS SCORING mean ± SEM: scale not given here; settings: Day 7; for COLITIS SCORING mean ± SEM: group mean, n = 9, 3% DSS; for Depletion of goblet cells / Edema / Erosion (epithelial cell damage) / Leucocytes Infiltration: ileum histology score 0-4, individual mouse; for COLITIS SCORING (sum): sum of the four ileum histology scores, individual mouse
Method: The objective of this study was to determine the prophylactic efficacy of R. intestinalis strain 43043 in a DSS-induced colitis mouse model, upon repeated oral administration.
Tacrolimus was dosed at 1 mg/kg/day
Valproic acid was dosed at 200 mg/kg/day
PBS, YCFA and bacterial cultures were dosed at 200 μL/day
Each of sixty three, 6 week old healthy male C57BL/6J mice were obtained from Charles River (France) and individually identified and labelled with a specific code. Each treatment group (9 animals/group) were housed in three different cages.
Days −7 to Day −1: Treatment with bacteria and reference substances according the treatment table above • Once daily oral administration of PBS, YCF A or Bacteria—200 μL per mouse • Once daily oral administration of Valproic acid at 200 mg/kg/day under a volume of 10 mL/kg From Day O to Day+7: DSS administration • Administration of 3% DSS in the drinking water From Day O to Day+6: Treatment with bacteria and reference substances • Once daily oral administration of PBS, YCFA or Bacteria—200 μL per mouse • Once daily oral administration of Valproic acid—200 mg/kg in sterile distilled water—10 mL/kg • Once daily SC administration of Tacrolimus—1 mg/kg in sterile 1% Tween80, 0.9% NaCl—10 mL/kg Day+7: Sacrifice of all groups and tissue harvesting • Euthanasia of animals was performed under gas anesthesia (Isoflurane) followed by exsanguination and cervical dislocation. Euthanasia methods used are those recommended for mice and rats by European directive 20 I 0/63/CE and the procedure describing euthanasia methods was approved by IACUC. • Laparotomy and ileum harvesting, just upstream of the caecum (from 0.5 cm and on)—all tissue harvested from exactly the same area between all mice: • 1.5 cm swiss-rolled ileum was harvested for histology, the closest to the caecum
Ileum Swiss-rolls specimens were embedded in paraffin and sections of 5 μm thickness were cut and mounted on SuperFrost Ultra plus glass slides. HP (Hematoxylin-Phloxin) staining & AB-PAS (Alcian Blue-Periodic Acid Schiff) staining were performed to visualize histomorphologic changes. A scoring based on edema, erosion, loss of crypts/goblet cells and infiltrates was established on each animal, using the criteria in the following table: […]

[4] = tested on: graft versus host disease (GVHD) induced in Balb/C mice; experiment: Graft versus host disease (GVHD) induced in Balb/C mice; format: in vivo, mouse; settings: for mean body weight over the course of the study: compared with Group 4 (PBS, TBI + allogeneic transfer), daily dosing Days -14 to 30
Description: Male Balb/C mice (BALB/cAnNCrl; 6-8 weeks old; n=125) with an average starting body weight (±SEM) of 20.67±0.11 g were obtained from Charles River Laboratories (Wilmington, Mass.). An additional n=75 male C57Bl/6 (C57Bl/6NCrl; 6-8 weeks old) were obtained from the same vendor. Animals were acclimatized prior to study commencement. During this period, the animals were observed daily in order to reject any that presented in poor condition.
Animals were randomized into 5 groups at the start of the study. Each group comprised between 8 and 12 mice. Each group was further sub-divided into cohorts A and B (n=4-6 mice per group per cohort); cohorts had staggered disease timelines.
All animals were weighed and randomized by weight into treatment groups prior to study start. Prior to GVHD induction on Days −1 and 0, all animals were pre-treated (P0) with PBS (Groups 1-4), bacterial strain 43043 (Group 5), or Butyrate salt control (Group 6) daily starting on Day −14. Butyrate was used as a positive control as butyrate deficit has been identified in the gut of GVHD patients. Treatments were administered to groups at random, and group treatments were alternated daily to prevent the same groups from being treated at the same time each day. Once test article dosing had begun, care was taken to minimize group cross-contamination: gloves were changed by the technician between treatment groups, and were sprayed with 70% isopropyl alcohol between each cage of the same group.
GVHD was induced in n=84 Balb/C mice (Groups 4-10) using a single acute dose of 8 Gy of total body irradiation (TBI) on Day −1. On Day 0, these recipient mice were given an intravenous injection of a combination of T cell depleted bone marrow cells and splenic cells from donor C57Bl/6 mice in PBS. Bone marrow cells were isolated using standard flushing practices, and were T cell depleted using the cell surface T cell antigen CD3, with a CD3-biotin kit (Miltenyi Biotec catalog 130-094-973). Splenocytes were isolated using Miltenyi GentleMACS Dissociators. Animals in Group 1 served as naïve controls and received neither TBI nor cell transfer. […] Animals in Group 3 served as syngeneic adoptive transfer controls; these animals received 8 Gy of TBI on Day −1, and an intravenous injection of a combination of T cell depleted bone marrow cells and splenic cells from donor Balb/C mice in sterile PBS.
Daily test article dosing continued for the duration of the study (Days −14 to 30). Animal survival was recorded daily, as an indication of GVHD severity. […] The GVHD score was assessed by a standard scoring system based on five criteria (Table 21): percentage of weight change, posture (hunching), activity, fur texture, and skin integrity (maximum score=10). […]

Structure (SMILES)	inhibition of total HDAC activity (HDAC [2])	COLITIS SCORING mean ± SEM [3]	Depletion of goblet cells ([3]; 3% DSS)	Edema ([3]; 3% DSS)	Erosion (epithelial cell damage) ([3]; 3% DSS)	Leucocytes Infiltration ([3]; 3% DSS)	COLITIS SCORING (sum) ([3]; 3% DSS)	mean body weight over the course of the study [4]	also measured
CCCC(=O)[O-].[Na+] [sodium butyrate, Sodium butyrate]	–	–	–	–	–	–	–	–	inhibition of HDAC activity (HDAC [1]): significant (P<0.05) inhibition of HDAC activity; inhibition of HDAC activity (HDAC [2]; on whole HT-29 cells): significant (P<0.05) inhibition of HDAC activity
CCCCC(=O)O [Valeric acid, valeric acid]	inhibited total HDAC activity	–	–	–	–	–	–	–	–
C=CC[C@@H]1/C=C(\C)C[C@H](C)C[C@H](OC)[C@H]2O[C@@](O)(C(=O)C(=O)N3CCCC[C@H]3C(=O)O[C@H](/C(C)=C/[C@@H]3CC[C@@H](O)[C@H](OC)C3)[C@H](C)[C@@H](O)CC1=O)[C@H](C)C[C@@H]2OC [Tacrolimus]	–	0.44 ±0.08	0	0	0	0 (6×) and 2 (Mild 10-25%) and 1 (Minimal <10%) (2×)	0 (6×) and 2 and 1 (2×)	same trend was observed	leukocyte infiltration in the ileum ([3]; group comparison in text, 3% DSS): reduced leukocyte infiltration comparable to controls
CCCCCC(=O)O [hexanoic acid]	did show significant inhibitory activity	–	–	–	–	–	–	–	–
CCCC(CCC)C(=O)O [Valproic acid, Valproic Acid]	–	0.67 ± 0.10	0	0	0	2 (Mild 10-25%) (2×) and 1 (Minimal <10%) (2×) and 0 (5×)	2 (2×) and 1 (2×) and 0 (5×)	–	–
CCCC(=O)O [Butyrate salt]	–	–	–	–	–	–	–	No significant differences in mean body weight	Mean colitis severity scores (endoscopy) ([4]; Day 29, as compared to naïve mice (Group 1)): increased; mean GVHD scores ([4]; Days 0 to 30, AUC, compared to Group 3 (syngeneic transfer), with and without scores carried forward): significantly increased mean GVHD scores as compared to Group 3
